Assay results published in publication PMC8035703, “Effect of Synchronous Versus Sequential Regimens on the Pharmacokinetics and Biodistribution of Regorafenib with Irradiation” (Pharmaceutics, 2021).

Experiments:
[1] = system: HCC patients; parameters: method as in PMID 29704513; details: patients treated with sorafenib followed by regorafenib; cited from earlier work
[2] = Hepatic and renal functions (GPT, creatinine) in rats; type: in vivo, Sprague-Dawley rats; details: rat
Experimental: Glutamic-pyruvic transaminase (GPT) and […] were measured to check the influence of different modalities on hepatic function and renal function by a standard colorimetric method, using a Synchron LX20 spectrophotometer (Beckman Coulter) and manufacturer-supplied reagents.

[3] = system: Huh-7 cells; assay: Cell cycle analysis (propidium iodide, flow cytometry); type: cell-based, human
Experimental: The cells were collected, fixed and stained with propidium iodide. Flow cytometry was performed, using a Beckman Coulter Elite Epics sorter. The sub-G1 phase was used to quantify dead cells in the apoptosis assays. Cells were released into DMSO or regorafenib at 5, 10 and 20 μM in the concurrent or sequential groups with different RT doses. Floating and adherent cells were harvested at various time points, stained with propidium iodide and analyzed by flow cytometry.

[4] = system: Huh-7 cells; assay: Apoptosis assay (Annexin-V FITC / PI); type: cell-based, human
Source text: Annexin-V FITC and propidium iodide (PI) (BD Bioscience Pharmingen (San Diego, CA, USA)) were used to identify apoptotic cells by FACScan. Cells that were positive for Annexin V and negative for PI were defined as early apoptotic cells. Cells that were positive for both Annexin V and PI were defined as late apoptotic cells.

Structure (SMILES): CNC(=O)c1cc(Oc2ccc(NC(=O)Nc3ccc(Cl)c(C(F)(F)F)c3)c(F)c2)ccn1 [regorafenib, Regorafenib]
- Median overall survival [1]: 26 months
- Creatinine at 240 min ([2]; concurrent RT2 Gy × 1 f'x): 0.25 ± 0.06 mg/dL
- Glutamate pyruvate transaminase at 240 min ([2]; concurrent RT2 Gy × 1 f'x): 31.8 ± 5.3 UI
- Creatinine at 240 min ([2]; concurrent RT9 Gy × 1 f'x): 0.21 ± 0.02 mg/dL
- Glutamate pyruvate transaminase at 240 min ([2]; concurrent RT9 Gy × 1 f'x): 33.5 ± 8.8 UI
- Glutamate pyruvate transaminase and creatinine, regorafenib with vs without RT ([2]; different regimens and doses): no significant differences
- Creatinine at 240 min ([2]; regorafenib-only): 0.23 ± 0.04 mg/dL
- Glutamate pyruvate transaminase at 240 min ([2]; regorafenib-only): 36.3 ± 15.0 UI
- Creatinine at 240 min ([2]; sequential RT2 Gy × 1 f'x): 0.22 ± 0.04 mg/dL
- Glutamate pyruvate transaminase at 240 min ([2]; sequential RT2 Gy × 1 f'x): 30.5 ± 6.0 UI
- Creatinine at 240 min ([2]; sequential RT9 Gy × 1 f'x): 0.25 ± 0.04 mg/dL
- Glutamate pyruvate transaminase at 240 min ([2]; sequential RT9 Gy × 1 f'x): 33.7 ± 5.2 UI
- Accumulation of sub-G1 Huh-7 cells (in words) ([3]; concurrent groups): correlated with the dose of regorafenib but was not correlated with RT or its absence
- Accumulation of sub-G1 Huh-7 cells (in words) ([3]; sequential groups): correlated with the doses of regorafenib and RT
- Late apoptosis of Huh-7 cells (in words) ([4]; RT followed by regorafenib): enhanced the late apoptosis of Huh-7 cells
- Apoptosis of Huh-7 cells (in words) ([4]; regorafenib concurrent with or following RT): caused Huh-7 cell apoptosis in a dose-dependent manner
